Reference: US20200024278A1, “COMPOSITION COMPRISING ANTIBIOTIC COMPOUND AND AN HETEROCYCLIC COMPOUND AND THEIR USE IN PREVENTING OR TREATING BACTERIAL INFECTIONS” (MUTABILIS, priority 2016, published 2020)

Key:
Experiment in all cases: MIC, broth microdilution (CLSI), substance alone or ATB combined with compound at 4 or 8 μg/mL
ECL P99 = format: cell-based, E. cloacae; conditions: for MIC ATB combined with Example: Example @8 μg/ml
Method in brief: (§1)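 CLSI M7-A7 broth microdilution. ca-MHB, 5·10^5 CFU/mL log-phase cells, 16-20 h, 35° C, ambient air. Fosfomycin wells + 25 μg/ml glucose-6-phosphate. Visual MIC read.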

KPN BAA-1898 = format: cell-based, K. pneumoniae; conditions: for MIC ATB combined with Example: Example @8 μg/ml
Method in brief: as §1

KPN 6299 = format: cell-based, K. pneumoniae; conditions: for MIC ATB combined with Example: Example @8 μg/ml
Method in brief: as §1

KPN UFR42 = format: cell-based, K. pneumoniae; conditions: for MIC ATB combined with Example / MIC ATB combined with Example compound: KPN UFR42; for MIC ATB combined with Example: Example @8 μg/ml; for MIC ATB combined with Example compound: compound @8 μg/ml
Method in brief: as §1

SAU 29213 = format: cell-based, S. aureus; conditions: for MIC ATB combined with Example / MIC ATB combined with Example compound: SAU 29213; for MIC ATB combined with Example: Example @8 μg/ml; for MIC ATB combined with Example compound: compound @8 μg/ml
Method in brief: as §1

PAE UFR90 = format: cell-based, P. aeruginosa; conditions: PAE UFR90; for MIC ATB combined with Example: Example @8 μg/ml; for MIC ATB combined with Example compound: compound @8 μg/ml
Method in brief: as §1

PAE 105250 = format: cell-based, P. aeruginosa; conditions: PAE 105250; for MIC ATB combined with Example: Example @8 μg/ml; for MIC ATB combined with Example compound: compound @8 μg/ml
Method in brief: as §1

PAE UFR48 = format: cell-based, P. aeruginosa; conditions: PAE UFR48; for MIC ATB combined with Example: Example @8 μg/ml; for MIC ATB combined with Example compound: compound @8 μg/ml
Method in brief: as §1

SPN 49619 = format: cell-based, S. pneumoniae; conditions: for MIC ATB combined with Example / MIC ATB combined with Example compound: SPN 49619; for MIC ATB combined with Example: Example @8 μg/ml; for MIC ATB combined with Example compound: compound @8 μg/ml
Method in brief: as §1

ECO UFR39 = format: cell-based, E. coli; conditions: for MIC ATB combined with Example / MIC ATB combined with Example compound: ECO UFR39; for MIC ATB combined with Example: Example @8 μg/ml; for MIC ATB combined with Example compound: compound @8 μg/ml
Method in brief: as §1

ECO 190317 = format: cell-based, E. coli; conditions: for MIC ATB combined with Example: Example @8 μg/ml
Method in brief: as §1

O=C1N2CC(n3cccn3)=CC(C2)N1OC(F)(F)C(=O)[O-].[Li+] (stereo not shown) [Example 13, lithium difluoro-(7-oxo-3-pyrazol-1-yl-1,6-diaza-bicyclo[3.2.1]oct-3-en-6-yloxy)-acetate]
>128 µg/mL: MIC ATB combined with Example (PAE 105250; ATB FOS)
> 32 µg/mL: MIC (SPN 49619; Streptococcus pneumoniae)
16 µg/mL: MIC (ECL P99; Enterobacter cloacae) | MIC (KPN BAA-1898; Klebsiella pneumoniae, BAA1898) | MIC ATB combined with Example compound (KPN BAA-1898; MIC of CIP, compound @8 μg/ml, KPN BAA-1898) | MIC (KPN UFR42; Klebsiella pneumoniae) | MIC ATB combined with Example (PAE UFR90; ATB ATM) | MIC ATB combined with Example compound (PAE UFR90; MIC of CPO) | MIC ATB combined with Example compound (PAE 105250; MIC of CPO) | MIC ATB combined with Example (PAE UFR48; ATB FOS)
>32 µg/mL: MIC ATB combined with Example (KPN UFR42; ATB MEM) | MIC ATB combined with Example (KPN UFR42; ATB PIP) | MIC ATB combined with Example compound (KPN UFR42; MIC of CIP) | MIC ATB combined with Example (SAU 29213; ATB ATM) | MIC ATB combined with Example (PAE UFR90; ATB PIP) | MIC ATB combined with Example compound (PAE UFR48; MIC of CPO) | MIC ATB combined with Example (SPN 49619; ATB ATM)
32 µg/mL: MIC ATB combined with Example (ECL P99; ATB FOS, ECL P99) | MIC ATB combined with Example (KPN BAA-1898; ATB PIP, KPN BAA-1898) | MIC ATB combined with Example compound (KPN 6299; MIC of CIP, compound @8 μg/ml) | MIC ATB combined with Example compound (KPN UFR42; MIC of CPO) | MIC (SAU 29213; Staphylococcus aureus, MSSA) | MIC ATB combined with Example (PAE 105250; ATB PIP) | MIC ATB combined with Example (PAE UFR48; ATB FEP) | MIC ATB combined with Example (PAE UFR48; ATB PIP) | MIC ATB combined with Example (SPN 49619; ATB FOS)
4 µg/mL: MIC ATB combined with Example (ECL P99; ATB PIP, ECL P99) | MIC ATB combined with Example (KPN BAA-1898; ATB ATM, KPN BAA-1898) | MIC ATB combined with Example (KPN BAA-1898; ATB FOS, KPN BAA-1898) | MIC ATB combined with Example (KPN UFR42; ATB FOS) | MIC ATB combined with Example compound (PAE UFR48; MIC of CIP) | MIC (ECO 190317; Escherichia coli)
0.0078 µg/mL: MIC ATB combined with Example compound (SAU 29213; MIC of RIF) | MIC ATB combined with Example compound (SPN 49619; MIC of RIF)
2 µg/mL: MIC ATB combined with Example (ECL P99; ATB ATM, ECL P99) | MIC ATB combined with Example (SAU 29213; ATB FEP) | MIC ATB combined with Example (PAE UFR90; ATB MEM) | MIC ATB combined with Example (PAE 105250; ATB MEM)
<=0.031 μg/mL: MIC ATB combined with Example (ECL P99; ATB FEP, ECL P99) | MIC ATB combined with Example (ECL P99; ATB MEM, ECL P99) | MIC ATB combined with Example compound (ECL P99; MIC of CIP, compound @8 μg/ml, ECL P99) | MIC ATB combined with Example (KPN 6299; ATB ATM) | MIC ATB combined with Example (KPN 6299; ATB MEM) | MIC ATB combined with Example (KPN UFR42; ATB FEP) | MIC ATB combined with Example (SAU 29213; ATB MEM) | MIC ATB combined with Example (SPN 49619; ATB MEM) | MIC ATB combined with Example compound (SPN 49619; MIC of CPO) | MIC ATB combined with Example (ECO UFR39; ATB MEM)
<0.125 µg/mL: MIC ATB combined with Example (ECO UFR39; ATB FOS) | MIC ATB combined with Example (ECO 190317; ATB FOS, ECO 190317)
<0.031 µg/mL: MIC ATB combined with Example (ECO UFR39; ATB ATM) | MIC ATB combined with Example (ECO UFR39; ATB FEP) | MIC ATB combined with Example (ECO UFR39; ATB PIP) | MIC ATB combined with Example compound (ECO UFR39; MIC of CIP) | MIC ATB combined with Example compound (ECO UFR39; MIC of CPO) | MIC ATB combined with Example (ECO 190317; ATB ATM, ECO 190317) | MIC ATB combined with Example (ECO 190317; ATB FEP, ECO 190317) | MIC ATB combined with Example (ECO 190317; ATB MEM, ECO 190317) | MIC ATB combined with Example (ECO 190317; ATB PIP, ECO 190317) | MIC ATB combined with Example compound (ECO 190317; MIC of CIP, compound @8 μg/ml, ECO 190317)
0.5 µg/mL: MIC ATB combined with Example (KPN 6299; ATB PIP) | MIC ATB combined with Example (SAU 29213; ATB FOS) | MIC ATB combined with Example compound (SAU 29213; MIC of CPO) | MIC ATB combined with Example (PAE UFR48; ATB MEM) | MIC ATB combined with Example (SPN 49619; ATB PIP) | MIC ATB combined with Example compound (SPN 49619; MIC of CIP) | MIC ATB combined with Example compound (SPN 49619; MIC of DAP) | MIC ATB combined with Example compound (SPN 49619; MIC of SYN)
0.25 µg/mL: MIC ATB combined with Example (KPN BAA-1898; ATB FEP, KPN BAA-1898) | MIC ATB combined with Example (KPN BAA-1898; ATB MEM, KPN BAA-1898) | MIC ATB combined with Example compound (SAU 29213; MIC of CIP) | MIC ATB combined with Example compound (SAU 29213; MIC of SYN) | MIC ATB combined with Example compound (SPN 49619; MIC of VAN)
0.125 µg/mL: MIC ATB combined with Example (KPN UFR42; ATB ATM) | MIC ATB combined with Example compound (SAU 29213; MIC of ERY)
8 µg/mL: MIC ATB combined with Example (KPN 6299; ATB FOS) | MIC ATB combined with Example (PAE UFR90; ATB FEP) | MIC ATB combined with Example (PAE UFR90; ATB FOS) | MIC ATB combined with Example (PAE 105250; ATB ATM) | MIC ATB combined with Example (PAE 105250; ATB FEP) | MIC ATB combined with Example (PAE UFR48; ATB ATM) | MIC (ECO UFR39; Escherichia coli)
0.063 µg/mL: MIC ATB combined with Example (KPN 6299; ATB FEP) | MIC ATB combined with Example compound (SAU 29213; MIC of CLI) | MIC ATB combined with Example compound (PAE 105250; MIC of CIP) | MIC ATB combined with Example (SPN 49619; ATB FEP) | MIC ATB combined with Example compound (SPN 49619; MIC of CLI) | MIC ATB combined with Example compound (SPN 49619; MIC of ERY)
1 µg/mL: MIC ATB combined with Example (SAU 29213; ATB PIP) | MIC ATB combined with Example compound (SAU 29213; MIC of DAP) | MIC ATB combined with Example compound (SAU 29213; MIC of LZD) | MIC ATB combined with Example compound (SAU 29213; MIC of VAN) | MIC ATB combined with Example compound (PAE UFR90; MIC of CIP) | MIC ATB combined with Example compound (SPN 49619; MIC of LZD)
